Results reported in ChEMBL document CHEMBL1201862, “PubChem BioAssay data set” (2004).
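Five concentrations, 48 hours, 96-well plates. GI50: concentration for 50% inhibition of growth.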 Active and inactive are the calls of the source. No stated cut-off is given here; in the data, active = GI50 up to about 1.1 µM and inactive = higher.

Key:
Test in all cases: growth of human tumour cells (NCI), 48 h
OVCAR-5 = tested on: OVCAR-5
SF-268 = tested on: SF-268
SK-OV-3 = tested on: SK-OV-3
IGROV-1 = tested on: IGROV-1
786-0 = tested on: 786-0
RXF 393 = tested on: RXF 393
TK-10 = tested on: TK-10
HCC 2998 = tested on: HCC 2998
SK-MEL-2 = tested on: SK-MEL-2
HCT-116 = tested on: HCT-116
MDA-N = tested on: MDA-N
SN12C = tested on: SN12C
MDA-MB-435 = tested on: MDA-MB-435
SF-539 = tested on: SF-539
HOP-92 = tested on: HOP-92
HCT-15 = tested on: HCT-15
SK-MEL-5 = tested on: SK-MEL-5
DU-145 = tested on: DU-145
HT-29 = tested on: HT-29
M14 = tested on: M14
NCI-H23 = tested on: NCI-H23
NCI/ADR-RES = tested on: NCI/ADR-RES
A498 = tested on: A498
MOLT-4 = tested on: MOLT-4
NCI-H522 = tested on: NCI-H522
Malme-3M = tested on: Malme-3M
SNB-19 = tested on: SNB-19
A549 = tested on: A549
BT-549 = tested on: BT-549
SW-620 = tested on: SW-620
MDA-MB-231 = tested on: MDA-MB-231
SNB-75 = tested on: SNB-75
PC-3 = tested on: PC-3
RPMI-8226 = tested on: RPMI-8226
COLO 205 = tested on: COLO 205
NCI-H460 = tested on: NCI-H460
ACHN = tested on: ACHN
OVCAR-3 = tested on: OVCAR-3
SF-295 = tested on: SF-295
LOX IMVI = tested on: LOX IMVI
UACC-257 = tested on: UACC-257
U-251 = tested on: U-251
CAKI-1 = tested on: CAKI-1
SR = tested on: SR
T47D = tested on: T47D
CCRF-CEM = tested on: CCRF-CEM
UO-31 = tested on: UO-31
OVCAR-4 = tested on: OVCAR-4
MCF7 = tested on: MCF7
HOP-62 = tested on: HOP-62
UACC-62 = tested on: UACC-62
EKVX = tested on: EKVX
NCI-H226 = tested on: NCI-H226
KM12 = tested on: KM12
SK-MEL-28 = tested on: SK-MEL-28
K562 = tested on: K562
OVCAR-8 = tested on: OVCAR-8
HL-60 = tested on: HL-60

How did the GI50 (OVCAR-5) turn out when CC(=O)O[C@H]1CC[C@@]2(C)C(=CC[C@@H]3[C@@H]2CC[C@]2(C)C(=O)/C(=C\c4ccccc4)C[C@@H]32)C1 was run?
The GI50 was > 100 µM (inactive).

What about the GI50 (SF-268) of the same compound?
Its GI50 is > 100 µM (inactive).

And the GI50 (SK-OV-3)?
Its GI50 is > 100 µM (inactive).

And the GI50 (IGROV-1)?
Its GI50 is > 100 µM (inactive).

And the GI50 (786-0)?
Its GI50 is > 100 µM (inactive).

What about the GI50 (RXF 393) of the same compound?
Its GI50 is 40.5 µM (inactive).

What about the GI50 (TK-10) of the same compound?
The GI50 was > 100 µM (inactive).

What about the GI50 (HCC 2998) of the same compound?
The GI50 was > 100 µM (inactive).

What about the GI50 (SK-MEL-2) of the same compound?
Its GI50 is > 100 µM (inactive).

What about the GI50 (HCT-116) of the same compound?
The GI50 was 96.2 µM (inactive).

What about the GI50 (MDA-N) of the same compound?
The GI50 was > 100 µM (inactive).

What about the GI50 (SN12C) of the same compound?
Its GI50 is > 100 µM (inactive).

What about the GI50 (MDA-MB-435) of the same compound?
The GI50 was > 100 µM (inactive).

And the GI50 (SF-539)?
Its GI50 is > 100 µM (inactive).

And the GI50 (HOP-92)?
Its GI50 is > 100 µM (inactive).

What about the GI50 (HCT-15) of the same compound?
The GI50 was > 100 µM.

What about the GI50 (SK-MEL-5) of the same compound?
Its GI50 is 39.4 µM (inactive).

What about the GI50 (DU-145) of the same compound?
Its GI50 is > 100 µM (inactive).

What about the GI50 (HT-29) of the same compound?
Its GI50 is > 100 µM (inactive).

And the GI50 (M14)?
The GI50 was > 100 µM (inactive).

What about the GI50 (NCI-H23) of the same compound?
The GI50 was > 100 µM (inactive).

And the GI50 (NCI/ADR-RES)?
Its GI50 is > 100 µM (inactive).

And the GI50 (A498)?
The GI50 was > 100 µM (inactive).

And the GI50 (MOLT-4)?
Its GI50 is 37.8 µM (inactive).

What about the GI50 (NCI-H522) of the same compound?
Its GI50 is 51.8 µM (inactive).

And the GI50 (Malme-3M)?
The GI50 was 89.9 µM (inactive).

What about the GI50 (SNB-19) of the same compound?
The GI50 was > 100 µM (inactive).

What about the GI50 (A549) of the same compound?
Its GI50 is > 100 µM (inactive).

And the GI50 (BT-549)?
The GI50 was > 100 µM (inactive).

And the GI50 (SW-620)?
The GI50 was > 100 µM (inactive).

What about the GI50 (MDA-MB-231) of the same compound?
Its GI50 is > 100 µM (inactive).

And the GI50 (SNB-75)?
Its GI50 is > 100 µM (inactive).

What about the GI50 (PC-3) of the same compound?
The GI50 was 64.7 µM (inactive).

And the GI50 (RPMI-8226)?
The GI50 was > 100 µM (inactive).

And the GI50 (COLO 205)?
Its GI50 is > 100 µM (inactive).

What about the GI50 (NCI-H460) of the same compound?
The GI50 was > 100 µM (inactive).

What about the GI50 (ACHN) of the same compound?
Its GI50 is > 100 µM (inactive).

What about the GI50 (OVCAR-3) of the same compound?
Its GI50 is 61.9 µM (inactive).

What about the GI50 (SF-295) of the same compound?
The GI50 was > 100 µM (inactive).

What about the GI50 (LOX IMVI) of the same compound?
The GI50 was > 100 µM (inactive).

And the GI50 (UACC-257)?
Its GI50 is > 100 µM (inactive).

And the GI50 (U-251)?
The GI50 was > 100 µM (inactive).

And the GI50 (CAKI-1)?
Its GI50 is > 100 µM (inactive).

And the GI50 (SR)?
The GI50 was > 100 µM (inactive).

And the GI50 (T47D)?
Its GI50 is > 100 µM (inactive).

What about the GI50 (CCRF-CEM) of the same compound?
The GI50 was > 100 µM (inactive).

And the GI50 (UO-31)?
Its GI50 is > 100 µM (inactive).

What about the GI50 (OVCAR-4) of the same compound?
The GI50 was > 100 µM (inactive).

What about the GI50 (MCF7) of the same compound?
The GI50 was > 100 µM (inactive).

And the GI50 (HOP-62)?
The GI50 was 94 µM (inactive).

And the GI50 (UACC-62)?
The GI50 was > 100 µM (inactive).

What about the GI50 (EKVX) of the same compound?
Its GI50 is > 100 µM (inactive).

And the GI50 (NCI-H226)?
Its GI50 is > 100 µM (inactive).

What about the GI50 (KM12) of the same compound?
Its GI50 is > 100 µM (inactive).

What about the GI50 (SK-MEL-28) of the same compound?
The GI50 was > 100 µM (inactive).

What about the GI50 (K562) of the same compound?
Its GI50 is 54.7 µM (inactive).

What about the GI50 (OVCAR-8) of the same compound?
The GI50 was > 100 µM (inactive).

With C=C(Br)C(Cl)(CBr)CCC(Br)C(C)(C)Cl (stereo not given) as the compound, how does the GI50 (OVCAR-5) read?
Its GI50 is > 10 µM (inactive).

What about the GI50 (SF-268) of the same compound?
Its GI50 is > 10 µM (inactive).

And the GI50 (SK-OV-3)?
The GI50 was > 10 µM (inactive).

And the GI50 (IGROV-1)?
The GI50 was > 10 µM (inactive).

What about the GI50 (786-0) of the same compound?
The GI50 was 5.36 µM (inactive).

And the GI50 (RXF 393)?
The GI50 was > 10 µM (inactive).

And the GI50 (TK-10)?
The GI50 was > 10 µM (inactive).

What about the GI50 (HCC 2998) of the same compound?
The GI50 was > 10 µM (inactive).

What about the GI50 (SK-MEL-2) of the same compound?
Its GI50 is > 10 µM (inactive).

What about the GI50 (HCT-116) of the same compound?
Its GI50 is > 10 µM (inactive).

And the GI50 (MDA-N)?
The GI50 was > 10 µM (inactive).

And the GI50 (SN12C)?
Its GI50 is > 10 µM (inactive).

And the GI50 (MDA-MB-435)?
Its GI50 is > 10 µM (inactive).

What about the GI50 (SF-539) of the same compound?
Its GI50 is > 10 µM (inactive).

What about the GI50 (HL-60) of the same compound?
The GI50 was > 10 µM (inactive).

What about the GI50 (HOP-92) of the same compound?
The GI50 was > 10 µM (inactive).

What about the GI50 (SK-MEL-5) of the same compound?
The GI50 was > 10 µM (inactive).

What about the GI50 (DU-145) of the same compound?
The GI50 was > 10 µM (inactive).

What about the GI50 (HT-29) of the same compound?
The GI50 was > 10 µM (inactive).

And the GI50 (M14)?
Its GI50 is > 10 µM (inactive).

And the GI50 (NCI-H23)?
Its GI50 is > 10 µM (inactive).

And the GI50 (NCI/ADR-RES)?
Its GI50 is > 10 µM (inactive).

What about the GI50 (A498) of the same compound?
The GI50 was > 10 µM (inactive).

What about the GI50 (MOLT-4) of the same compound?
Its GI50 is > 10 µM (inactive).

And the GI50 (NCI-H522)?
Its GI50 is > 10 µM (inactive).

And the GI50 (SNB-19)?
The GI50 was > 10 µM (inactive).

What about the GI50 (A549) of the same compound?
The GI50 was > 10 µM (inactive).

And the GI50 (BT-549)?
The GI50 was > 10 µM (inactive).

And the GI50 (SW-620)?
Its GI50 is > 10 µM (inactive).

What about the GI50 (MDA-MB-231) of the same compound?
Its GI50 is > 10 µM (inactive).

And the GI50 (SNB-75)?
Its GI50 is > 10 µM (inactive).

What about the GI50 (PC-3) of the same compound?
Its GI50 is > 10 µM (inactive).

What about the GI50 (RPMI-8226) of the same compound?
The GI50 was 9.2 µM (inactive).

And the GI50 (COLO 205)?
The GI50 was > 10 µM (inactive).

What about the GI50 (ACHN) of the same compound?
Its GI50 is > 10 µM (inactive).

And the GI50 (OVCAR-3)?
The GI50 was > 10 µM (inactive).

And the GI50 (SF-295)?
Its GI50 is > 10 µM (inactive).

What about the GI50 (U-251) of the same compound?
Its GI50 is > 10 µM (inactive).

What about the GI50 (CAKI-1) of the same compound?
The GI50 was > 10 µM (inactive).

And the GI50 (SR)?
The GI50 was > 10 µM (inactive).

What about the GI50 (T47D) of the same compound?
The GI50 was > 10 µM (inactive).

And the GI50 (CCRF-CEM)?
Its GI50 is > 10 µM (inactive).

And the GI50 (UO-31)?
Its GI50 is > 10 µM (inactive).

And the GI50 (OVCAR-4)?
The GI50 was > 10 µM (inactive).

What about the GI50 (MCF7) of the same compound?
Its GI50 is 7.83 µM (inactive).

What about the GI50 (HOP-62) of the same compound?
Its GI50 is > 10 µM (inactive).

And the GI50 (UACC-62)?
Its GI50 is > 10 µM (inactive).

What about the GI50 (EKVX) of the same compound?
Its GI50 is > 10 µM (inactive).

What about the GI50 (NCI-H226) of the same compound?
The GI50 was > 10 µM (inactive).

And the GI50 (KM12)?
Its GI50 is > 10 µM (inactive).

And the GI50 (SK-MEL-28)?
Its GI50 is > 10 µM (inactive).

And the GI50 (K562)?
The GI50 was > 10 µM (inactive).

What about the GI50 (OVCAR-8) of the same compound?
Its GI50 is > 10 µM (inactive).
